For the assay, the system named is mutant HTT protein (mHTT). Put plainly: Homogeneous Time Resolved Fluorescence (HTRF) assay for HTT lowering. It counts as cell-based. To be noted: reduction of mHTT in Huntington patient human cells (GENEAe020-A cell line), 48 hours incubation, mean from three replicates. As for the experimental part: Homogeneous Time Resolved Fluorescence for HTT lowering
The HTRF assay was adapted from Weiss et al. (Analytical Biochemistry Volume 395, Issue 1, 1 Dec. 2009, Pages 8-15 and Analytical Biochemistry Volume 410, 2011, Pages 304-306) to cells from GENEAe020-A cell line (https://hpscreg.eu/cell-line/GENEAe020-A).
Compounds were tested for the effect of mutant HTT levels in Huntington patient human cells (GENEAe020-A cell line) using Homogeneous Time Resolved Fluorescence (HTRF) directed towards mutant HTT protein (mHTT). The GENEAe020-A cell line was derived by Genea Biocells from human blastocysts of HD donors. After assessing viability, cells were plated into 384 well collagen coated plates in growth media. Once cells adhered, media was removed and test compounds dissolved in DMSO were diluted with buffer solution and added to the adherent cells. Controls included experiments with no cells, DMSO with no compound, and Hsp90 inhibitor control. Cells were incubated with compounds and controls for 48 hours. Then, the cells were lysed and transferred to an assay plate containing HTRF labeled monoclonal antibodies developed by Paul Patterson (Ko et al., Brain Research Bulletin, Volume 56, Numbers 3 and 4, 2001, Pages 319-329) which recognize specific areas of the HTT protein. The terbium labeled “donor” antibody (2B7) binds to the N-terminus of the HTT protein and the Alexa488 labeled “acceptor” antibody (MW1) is specific for the polyglutamine region of the protein. Binding of the acceptor labeled antibody is more efficient for the extended polyglutamine repeats of mutant HTT protein which translates into a signal boost which enables the specific measurement of mutant HTT protein level. The HTRF donor and acceptor detection reagents were incubated with the cell lysate and the ratio between the signals of the two fluorophores is indicative of the relative quantities of mHTT.
Background: In TR-FRET formats the signal depends on donor and acceptor labels being close together.
One may read the EC50 as the concentration at which the effect is half-maximal. A lower EC50 goes with greater potency. Take `COc1cc(-c2cc(=O)n3cc([C@H]4C[C@H]5CNC[C@@H](C4)O5)sc3n2)nn2cc(C)nc12` [Example 49, 7-(8-methoxy-2-methyl-imidazo[1,2-b]pyridazin-6-yl)-2-[rac-(1R,5S)-9-oxa-3-azabicyclo[3.3.1]nonan-7-yl]thiazolo[3,2-a]pyrimidin-5-one]: the response was half-maximal at 200 nM (EC50).

`COc1cc(-c2cc(=O)n3cc([C@]4(F)CCNC[C@H]4F)sc3n2)nn2cc(C)nc12` (racemic) [Example 51, 7-(8-methoxy-2-methyl-imidazo[1,2-b]pyridazin-6-yl)-2-[rac-(3R,4S)-3,4-difluoro-4-piperidyl]thiazolo[3,2-a]pyrimidin-5-one] showed an EC50 of 102 nM.

`COc1cc(-c2cc(=O)n3cc([C@H]4CCNC[C@H]4F)sc3n2)nn2cc(C)nc12` [Example 35, 7-(8-methoxy-2-methyl-imidazo[1,2-b]pyridazin-6-yl)-2-[(3S,4S)-3-fluoro-4-piperidyl]thiazolo[3,2-a]pyrimidin-5-one]: the midpoint of the response, the EC50, lay at 61 nM.

As for `Cc1cn2nc(-c3cc(=O)n4cc(N5CC6CNCC6C5)sc4n3)cc(C)c2n1` (stereo not shown) [Example 17, 2-(2,3,3a,4,6,6a-hexahydro-1H-pyrrolo[3,4-c]pyrrol-5-yl)-7-(2,8-dimethylimidazo[1,2-b]pyridazin-6-yl)thiazolo[3,2-a]pyrimidin-5-one], the EC50 was 421 nM.

The compound `COc1cc(-c2cc(=O)n3cc([C@H]4C[C@H]5CNC[C@@H](C4)O5)sc3n2)nn2cc(C)nc12` [Example 50, 7-(8-methoxy-2-methyl-imidazo[1,2-b]pyridazin-6-yl)-2-[rac-(1S,5R)-9-oxa-3-azabicyclo[3.3.1]nonan-7-yl]thiazolo[3,2-a]pyrimidin-5-one] showed an EC50 of 57 nM.

As to `CCc1cc(-c2cc(=O)n3cc(N4CCNCC4)sc3n2)nn2cc(C)nc12` [Example 12, 7-(8-ethyl-2-methyl-imidazo[1,2-b]pyridazin-6-yl)-2-piperazin-1-yl-thiazolo[3,2-a]pyrimidin-5-one], a half-maximal effect (EC50) was put at 104 nM.

Consider `Cc1cn2nc(-c3cc(=O)n4cc(N5C[C@@H]6C[C@H]5CN6)sc4n3)cc(C)c2n1` [Example 16, 7-(2,8-dimethylimidazo[1,2-b]pyridazin-6-yl)-2-[(1S,4S)-2,5-diazabicyclo[2.2.1]heptan-2-yl]thiazolo[3,2-a]pyrimidin-5-one], for which the EC50 was 9540 nM.

Turning to `Cc1cn2nc(-c3cc(=O)n4cc(N5CCN6CCC[C@@H]6C5)sc4n3)cc(C)c2n1` [Example 15, 7-(2,8-dimethylimidazo[1,2-b]pyridazin-6-yl)-2-[(8aR)-3,4,6,7,8,8a-hexahydro-1H-pyrrolo[1,2-a]pyrazin-2-yl]thiazolo[3,2-a]pyrimidin-5-one], the EC50 worked out at 123 nM.

As for `COc1cc(-c2cc(=O)n3cc([C@]4(F)CCNC[C@@H]4F)sc3n2)nn2cc(C)nc12` [Example 57, 7-(8-methoxy-2-methyl-imidazo[1,2-b]pyridazin-6-yl)-2-[(3S,4S)-3,4-difluoro-4-piperidyl]thiazolo[3,2-a]pyrimidin-5-one], a half-maximal effect (EC50) was put at 239 nM.

In the case of `Cc1cn2nc(-c3cc(=O)n4cc(N5CCN[C@H](C)C5)sc4n3)cc(C)c2n1` [Example 7, 7-(2,8-dimethylimidazo[1,2-b]pyridazin-6-yl)-2-[(3R)-3-methylpiperazin-1-yl]thiazolo[3,2-a]pyrimidin-5-one], it took 52 nM to reach a half-maximal effect (EC50).

The compound `Cc1cn2nc(-c3cc(=O)n4cc([C@H]5CCNC6(CC6)C5)sc4n3)cc(C)c2n1` [Example 36, 7-(2,8-dimethylimidazo[1,2-b]pyridazin-6-yl)-2-[(7S)-4-azaspiro[2.5]octan-7-yl]thiazolo[3,2-a]pyrimidin-5-one] displayed an EC50 of 55 nM.

For the compound `Cc1cn2nc(-c3cc(=O)n4cc(N5CCN[C@@H](C)C5)sc4n3)cc(C)c2n1` [Example 6, 7-(2,8-dimethylimidazo[1,2-b]pyridazin-6-yl)-2-[(3S)-3-methylpiperazin-1-yl]thiazolo[3,2-a]pyrimidin-5-one], the EC50 was found to be 268 nM.

`COc1cc(-c2cc(=O)n3cc([C@@]4(F)CCNC[C@@H]4F)sc3n2)nn2cc(C)nc12` [Example 59, 7-(8-methoxy-2-methyl-imidazo[1,2-b]pyridazin-6-yl)-2-[(3S,4R)-3,4-difluoro-4-piperidyl]thiazolo[3,2-a]pyrimidin-5-one] had an EC50 of 428 nM.

`Cc1cn2nc(-c3cc(=O)n4cc(N5CCC6(CCNCC6)C5)sc4n3)cc(C)c2n1` [Example 22, 2-(2,8-diazaspiro[4.5]decan-2-yl)-7-(2,8-dimethylimidazo[1,2-b]pyridazin-6-yl)thiazolo[3,2-a]pyrimidin-5-one] gave an EC50 of 1320 nM.

`Cc1cn2nc(-c3cc(=O)n4cc([C@@H]5CCNC[C@@H]5F)sc4n3)cc(C)c2n1` [Example 32, 7-(2,8-dimethylimidazo[1,2-b]pyridazin-6-yl)-2-[(3R,4R)-3-fluoro-4-piperidyl]thiazolo[3,2-a]pyrimidin-5-one] came in with an EC50 of 33 nM.

`Cc1nc2c(C)cc(-c3cc(=O)n4cc([C@@H]5CCNC[C@@H]5F)sc4n3)nc2o1` [Example 44, 7-(2,7-dimethyloxazolo[5,4-b]pyridin-5-yl)-2-[(3R,4R)-3-fluoro-4-piperidyl]thiazolo[3,2-a]pyrimidin-5-one] displayed an EC50 of 59 nM.

Regarding `Cc1cn2nc(-c3cc(=O)n4cc(C5(F)CCNCC5)sc4n3)cc(C)c2n1` [Example 26, 7-(2,8-dimethylimidazo[1,2-b]pyridazin-6-yl)-2-(4-fluoro-4-piperidyl)thiazolo[3,2-a]pyrimidin-5-one], the EC50 came to 128 nM.

In turn, `Cc1cn2nc(-c3cc(=O)n4cc(C5=CCNCC5)sc4n3)cc(C)c2n1` [Example 2, 7-(2,8-dimethylimidazo[1,2-b]pyridazin-6-yl)-2-(1,2,3,6-tetrahydropyridin-4-yl)thiazolo[3,2-a]pyrimidin-5-one] showed an EC50 of 54 nM.

Consider `Cc1cn2nc(-c3cc(=O)n4cc(N5CCNCC5)sc4n3)cc(OC(F)F)c2n1` [Example 27, 7-[8-(difluoromethoxy)-2-methyl-imidazo[1,2-b]pyridazin-6-yl]-2-piperazin-1-yl-thiazolo[3,2-a]pyrimidin-5-one], for which the EC50 turned out to be 68 nM.

In the case of `Cc1cn2nc(-c3cc(=O)n4cc([C@]5(F)CCNC[C@H]5F)sc4n3)cc(C)c2n1` (racemic) [Example 53, 7-(2,8-dimethylimidazo[1,2-b]pyridazin-6-yl)-2-[rac-(3R,4S)-3,4-difluoro-4-piperidyl]thiazolo[3,2-a]pyrimidin-5-one], the response was half-maximal at 132 nM (EC50).

In turn, `Cc1cn2nc(-c3cc(=O)n4cc(N5CCNCC5)sc4n3)ccc2n1` [Example 10, 7-(2-methylimidazo[1,2-b]pyridazin-6-yl)-2-piperazin-1-yl-thiazolo[3,2-a]pyrimidin-5-one] came in with an EC50 of 283 nM.

Turning to `C=C(C)c1cc(-c2cc(=O)n3cc(N4CCNCC4)sc3n2)nn2cc(C)nc12` [Example 19, 7-(8-isopropenyl-2-methyl-imidazo[1,2-b]pyridazin-6-yl)-2-piperazin-1-yl-thiazolo[3,2-a]pyrimidin-5-one], a half-maximal effect (EC50) was put at 3000 nM.

The compound `Cc1cn2nc(-c3cc(=O)n4cc([C@@H]5CCNC[C@H]5F)sc4n3)cc(C)c2n1` [Example 38, 7-(2,8-dimethylimidazo[1,2-b]pyridazin-6-yl)-2-[(3S,4R)-3-fluoro-4-piperidyl]thiazolo[3,2-a]pyrimidin-5-one] came in with an EC50 of 280 nM.

In turn, `Cc1cn2nc(-c3cc(=O)n4cc(N5C6CCC5CNC6)sc4n3)cc(C)c2n1` [Example 14, 2-(3,8-diazabicyclo[3.2.1]octan-8-yl)-7-(2,8-dimethylimidazo[1,2-b]pyridazin-6-yl)thiazolo[3,2-a]pyrimidin-5-one] yielded an EC50 of 931 nM.

The compound `Cc1nc2c(C)cc(-c3cc(=O)n4cc(C5CCNCC5)sc4n3)nc2o1` [Example 30, 7-(2,7-dimethyloxazolo[5,4-b]pyridin-5-yl)-2-(4-piperidyl)thiazolo[3,2-a]pyrimidin-5-one] yielded a 50% effective concentration (EC50) of 40 nM.

In turn, `COc1cc(-c2cc(=O)n3cc(C4(F)CCNCC4)sc3n2)nn2cc(C)nc12` [Example 42, 2-(4-fluoro-4-piperidyl)-7-(8-methoxy-2-methyl-imidazo[1,2-b]pyridazin-6-yl)thiazolo[3,2-a]pyrimidin-5-one] showed an EC50 of 53 nM.

Turning to `COc1cc(-c2cc(=O)n3cc([C@H]4CCNC5(CC5)C4)sc3n2)nn2cc(C)nc12` [Example 40, 7-(8-methoxy-2-methyl-imidazo[1,2-b]pyridazin-6-yl)-2-[(7S)-4-azaspiro[2.5]octan-7-yl]thiazolo[3,2-a]pyrimidin-5-one], the EC50 was found to be 83 nM.

The compound `Cc1cn2nc(-c3cc(=O)n4cc(N5CCNC(C)(C)C5)sc4n3)cc(C)c2n1` [Example 3, 7-(2,8-dimethylimidazo[1,2-b]pyridazin-6-yl)-2-(3,3-dimethylpiperazin-1-yl)thiazolo[3,2-a]pyrimidin-5-one] yielded an EC50 of 625 nM.

(Values after US20240018163A1, “NEW THIAZOLOPYRIMIDINONE DERIVATIVES” (Hoffmann-La Roche Inc., priority 2021, published 2024).)
